Reference: ChEMBL document CHEMBL1201862, “PubChem BioAssay data set” (2004)
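Dose response: 5 concentrations. Exposure: 48 h. Format: 96-well plates. Endpoint: linear interpolation; highest concentration if not reached. Here, GI50 denotes the concentration required for 50% inhibition of growth.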 The source made the active and inactive calls. Cut-off read from the data, not from the text of the source: active = GI50 up to about 1.1 µM and inactive = higher.

How the values were obtained:
Assay in all cases: inhibition of tumour cell growth, NCI panel, 48 h
[1] = test system: Hs-578T
[2] = test system: SW-620
[3] = test system: HOP-18
[4] = test system: UACC-62
[5] = test system: NCI-H460
[6] = test system: SNB-75
[7] = test system: OVCAR-5
[8] = test system: SF-295
[9] = test system: M14
[10] = test system: K562
[11] = test system: KM-20L2
[12] = test system: SNB-19
[13] = test system: SK-OV-3
[14] = test system: MDA-N
[15] = test system: TK-10
[16] = test system: COLO 205
[17] = test system: HCT-15
[18] = test system: EKVX
[19] = test system: NCI-H23
[20] = test system: OVCAR-8
[21] = test system: MDA-MB-231
[22] = test system: DLD-1
[23] = test system: HCC 2998
[24] = test system: NCI/ADR-RES
[25] = test system: SF-268
[26] = test system: A498
[27] = test system: DU-145
[28] = test system: Malme-3M
[29] = test system: MCF7
[30] = test system: LXFL 529
[31] = test system: T47D
[32] = test system: KM12
[33] = test system: DMS-114
[34] = test system: U-251
[35] = test system: SN12C
[36] = test system: 786-0
[37] = test system: SF-539
[38] = test system: HCT-116
[39] = test system: UACC-257
[40] = test system: OVCAR-4
[41] = test system: M19-MEL
[42] = test system: A549
[43] = test system: IGROV-1
[44] = test system: SNB-78
[45] = test system: SK-MEL-5
[46] = test system: SR
[47] = test system: CCRF-CEM
[48] = test system: HOP-92
[49] = test system: HT-29
[50] = test system: MDA-MB-435
[51] = test system: MOLT-4
[52] = test system: NCI-H522
[53] = test system: DMS-273
[54] = test system: RPMI-8226
[55] = test system: XF498
[56] = test system: BT-549
[57] = test system: HOP-62
[58] = test system: OVCAR-3
[59] = test system: SK-MEL-2
[60] = test system: ACHN
[61] = test system: PC-3
[62] = test system: LOX IMVI
[63] = test system: NCI-H226
[64] = test system: SK-MEL-28
[65] = test system: RXF 393
[66] = test system: CAKI-1
[67] = test system: UO-31

Cc1cc(NC(=O)C(=O)Cc2nc3ccccc3s2)ccc1Cl
GI50 [1]: > 100 µM (inactive)
GI50 [2]: > 100 µM (inactive)
GI50 [3]: 21.8 µM (inactive)
GI50 [4]: > 100 µM (inactive)
GI50 [5]: > 100 µM (inactive)
GI50 [6]: > 100 µM (inactive)
GI50 [7]: > 100 µM (inactive)
GI50 [8]: > 100 µM (inactive)
GI50 [9]: > 100 µM (inactive)
GI50 [10]: > 100 µM (inactive)
GI50 [11]: > 100 µM (inactive)
GI50 [12]: > 100 µM (inactive)
GI50 [13]: > 100 µM (inactive)
GI50 [14]: > 100 µM (inactive)
GI50 [15]: > 100 µM (inactive)
GI50 [16]: > 100 µM (inactive)
GI50 [17]: > 100 µM
GI50 [18]: > 100 µM (inactive)
GI50 [19]: > 100 µM (inactive)
GI50 [20]: > 100 µM (inactive)
GI50 [21]: > 100 µM (inactive)
GI50 [22]: > 100 µM (inactive)
GI50 [23]: > 100 µM (inactive)
GI50 [24]: > 100 µM (inactive)
GI50 [25]: > 100 µM (inactive)
GI50 [26]: > 100 µM (inactive)
GI50 [27]: > 100 µM (inactive)
GI50 [28]: > 100 µM (inactive)
GI50 [29]: > 100 µM (inactive)
GI50 [30]: > 100 µM (inactive)
GI50 [31]: > 100 µM (inactive)
GI50 [32]: > 100 µM (inactive)
GI50 [33]: > 100 µM (inactive)
GI50 [34]: > 100 µM (inactive)
GI50 [35]: > 100 µM (inactive)
GI50 [36]: > 100 µM (inactive)
GI50 [37]: > 100 µM (inactive)
GI50 [38]: > 100 µM (inactive)
GI50 [39]: > 93.3 µM (inactive)
GI50 [40]: > 100 µM (inactive)
GI50 [41]: > 100 µM (inactive)
GI50 [42]: > 100 µM (inactive)
GI50 [43]: > 100 µM (inactive)
GI50 [44]: > 100 µM (inactive)
GI50 [45]: > 100 µM (inactive)
GI50 [46]: > 100 µM (inactive)
GI50 [47]: > 100 µM (inactive)
GI50 [48]: > 100 µM (inactive)
GI50 [49]: > 100 µM (inactive)
GI50 [50]: > 100 µM (inactive)
GI50 [51]: > 100 µM (inactive)
GI50 [52]: > 100 µM (inactive)
GI50 [53]: > 100 µM (inactive)
GI50 [54]: > 100 µM (inactive)
GI50 [55]: > 100 µM (inactive)
GI50 [56]: > 100 µM (inactive)
GI50 [57]: > 100 µM (inactive)
GI50 [58]: > 100 µM (inactive)
GI50 [59]: > 100 µM (inactive)
GI50 [60]: > 100 µM (inactive)
GI50 [61]: > 100 µM (inactive)
GI50 [62]: > 100 µM (inactive)
GI50 [63]: > 100 µM (inactive)
GI50 [64]: > 100 µM (inactive)
GI50 [65]: > 100 µM (inactive)
GI50 [66]: > 100 µM (inactive)
GI50 [67]: > 100 µM (inactive)

Cc1c(C(=O)/C=C/c2ccccc2O)c(=O)n(-c2ccccc2)n1C
GI50 [2]: 15.1 µM (inactive)
GI50 [4]: 29 µM (inactive)
GI50 [5]: 12.9 µM (inactive)
GI50 [6]: 50.6 µM (inactive)
GI50 [7]: 66.8 µM (inactive)
GI50 [8]: 14.6 µM (inactive)
GI50 [11]: 31.6 µM (inactive)
GI50 [12]: 43.8 µM (inactive)
GI50 [13]: 36.1 µM (inactive)
GI50 [15]: 90.6 µM (inactive)
GI50 [16]: 26.4 µM (inactive)
GI50 [17]: 24.2 µM
GI50 [18]: 68.7 µM (inactive)
GI50 [19]: > 10 µM (inactive)
GI50 [20]: 15.6 µM (inactive)
GI50 [22]: 14.3 µM (inactive)
GI50 [23]: 16 µM (inactive)
GI50 [25]: 37.8 µM (inactive)
GI50 [26]: 27.5 µM (inactive)
GI50 [28]: 19.4 µM (inactive)
GI50 [30]: 16.7 µM (inactive)
GI50 [32]: > 10 µM (inactive)
GI50 [33]: 24.6 µM (inactive)
GI50 [34]: 12.2 µM (inactive)
GI50 [35]: 21 µM (inactive)
GI50 [36]: 20.4 µM (inactive)
GI50 [37]: 19.8 µM (inactive)
GI50 [38]: 16.5 µM (inactive)
GI50 [39]: 22.4 µM (inactive)
GI50 [41]: 23.9 µM (inactive)
GI50 [42]: 34 µM (inactive)
GI50 [43]: 42.1 µM (inactive)
GI50 [44]: 39.4 µM (inactive)
GI50 [45]: 12.3 µM (inactive)
GI50 [47]: 9.55 µM (inactive)
GI50 [48]: 28.3 µM (inactive)
GI50 [49]: 35.5 µM (inactive)
GI50 [51]: 19.3 µM (inactive)
GI50 [52]: 18.1 µM (inactive)
GI50 [53]: 22.2 µM (inactive)
GI50 [55]: 19.1 µM (inactive)
GI50 [58]: 29.2 µM (inactive)
GI50 [59]: 18 µM (inactive)
GI50 [60]: 19 µM (inactive)
GI50 [62]: 16.9 µM (inactive)
GI50 [63]: 33.5 µM (inactive)
GI50 [64]: 25.1 µM (inactive)
GI50 [65]: 14.2 µM (inactive)
GI50 [66]: 21.8 µM (inactive)
GI50 [67]: > 10 µM (inactive)
